Measurements: patent publication EP4810508A1, “ARABINOSE DERIVATIVE COMPOUND, AND COMPOSITION COMPRISING SAME FOR PREVENTING OR TREATING DEGENERATIVE BRAIN DISEASES” (Digmbio. Inc., priority 2023, dated 2025)
Where two headings read alike, the source gives them in different places.

System: HRE/Luc/HEK293 cells
Assay: HRE (Hypoxia Response Element) luciferase assay
Assay type: cell-based, human
Details: for fold induction at 10 µM / fold induction at 100 µM: Homo sapiens; for HRE expression: low concentration of 1 µM; for HRE assay: increase in HRE expression levels by the test substance relative to the vehicle in HRE/Luc/HEK293 cells
Protocol: • (a) HRE assay: Confirmation of increased in HRE expression levels by the test substance relative to the vehicle in HRE/Luc/HEK293 cells • * Less than a twofold increase at 100 µM, • ** More than a twofold increase at 100 µM, • *** More than a twofold increase at 10 µM, • **** More than a twofold increase at 1 µM, • Not performed.
It has been reported that in the brains of AD patients, blood supply is mostly insufficient, resulting in oxygen levels being up to 50% lower than those of normal individuals, leading to increased oxidative stress (ROS) and neuroinflammation. It has also been studied that when the HIF-1α (hypoxia inducible factor-1) factor binds to the HRE (hypoxia response element), it increases VEGF (vascular endothelial growth factor), which promotes the formation of new blood vessels, thereby increasing oxygen levels in the brain and helping to inhibit nerve cell damage.
A reporter gene containing luciferase, capable of verifying the level of HRE expression, was inserted into HEK-293 human embryonic kidney cells, and HRE/Luc/HEK293 cells were constructed by inserting a plasmid (HRE/Luc) with luciferase attached downstream of the HRE promoter that binds to HIF-1α using lipofectamine (Invitrogen).
To perform HRE luciferase analysis, HRE/Luc/HEK293 cells were seeded in 96-well culture plates at a cell density of 4 x 10^4 per well in minimal essential medium (MEM) containing 10% fetal bovine serum. After one day, the cell medium was removed and replaced with medium mixed with various concentrations of example compounds. Six hours after compound pretreatment, HRE/Luc/HEK293 cells were cultured under hypoxic conditions (O2 0.1%) for 18 hours. Subsequently, the cells were washed with phosphate buffer, lysed with lysis buffer, and then the luciferase reagent (Promega) for luciferase analysis was added. Afterward, changes in HRE expression levels associated with HIF-1 signaling were evaluated by measuring luminescence using an Infinite200 (Tecan).

[1] = HEK293, 18 h, 10uM, Table 2 (Examples 75-109, 114), read-out: HRE-inceasing 10uM
[2] = HEK293, 18 h, 100uM, Table 2 (Examples 75-109, 114), read-out: HRE-inceasing 100uM
[3] = HEK293, 18 h, 10uM, Table 2 (Examples 37-74, 52), read-out: HKt-increasing 10uM
[4] = HEK293, 18 h, 100uM, Table 2 (Examples 37-74, 52), read-out: HKt-increasing 100uM
[5] = HEK293, 10uM, fold increase of HRE expression, hypoxic conditions (O2 0.1%) 18 hours, Table 2, read-out: HRE-increasing 10uM
[6] = HEK293, 100uM, fold increase of HRE expression, hypoxic conditions (O2 0.1%) 18 hours, Table 2, read-out: HRE-increasing 100uM

COc1ccc2cc(-c3ccc(O[C@H]4OC[C@H](O)[C@H](O)[C@H]4O)cc3)oc2c1 [Example 81, (2R,3R,4S,5S)-2-(4-(6-methoxybenzofuran-2-yl)phenoxy)tetrahydro-2H-pyran-3,4,5-triol] was tested. Which fold induction at 10 µM [1] did it give?
The fold induction at 10 µM was 2.7.

What about the fold induction at 100 µM [2] of the same compound?
The fold induction at 100 µM was 3.6.

With CO[C@H]1CO[C@H](Oc2ccc(Oc3ccc(C(C)C)cc3)cc2)[C@H](O)[C@H]1O [Example 61, (2R,3R,4R,5S)-2-(4-(4-isopropylphenoxy)phenoxy)-5-methoxytetrahydro-2H-pyran-3,4-diol] as the compound, how does the fold induction at 10 µM [3] read?
Its fold induction at 10 µM is 1.1.

And the fold induction at 100 µM [4]?
Its fold induction at 100 µM is 1.3.

How did the fold induction at 10 µM [3] turn out when CC[C@H]1CC[C@H](Cc2ccc(O[C@H]3OC[C@H](O)[C@H](O)[C@H]3O)cc2)CC1 [Example 73, (2R,3R,4S,5S)-2-(4-(((1R,4R)-4-ethylcyclohexyl)methyl)phenoxy)tetrahydro-2H-pyran-3,4,5-triol] was run?
Its fold induction at 10 µM is 2.1.

What about the fold induction at 100 µM [4] of the same compound?
Its fold induction at 100 µM is 3.

For O[C@@H]1[C@@H](O)[C@@H](Oc2ccc(Cc3ccc(OC4CCCC4)cc3)cc2)OC[C@@H]1O [Example 45, (2R,3R,4S,5S)-2-(4-(4-(cyclopentyloxy)benzyl)phenoxy)tetrahydro-2H-pyran-3,4,5-triol], which fold induction at 10 µM [3] is on record?
Its fold induction at 10 µM is 1.1.

What about the fold induction at 100 µM [4] of the same compound?
Its fold induction at 100 µM is 1.3.

What does the source list for COc1ccc2c(ccn2-c2ccc(O[C@@H]3OC[C@H](O)[C@H](O)[C@H]3O)cc2)c1 [Example 83, (2S,3R,4S,5S)-2-(4-(5-methoxy-1H-indol-1-yl)phenoxy)tetrahydro-2H-pyran-3,4,5-triol]?
fold induction at 10 µM [1]: 2.2; fold induction at 100 µM [2]: 3.3

With COc1ccc(Cc2ccc(O[C@H]3OC[C@H](O)[C@H](O)[C@H]3O)cc2)c(F)c1 [Example 50, (2R,3R,4S,5S)-2-(4-(2-fluoro-4-methoxybenzyl)phenoxy)tetrahydro-2H-pyran-3,4,5-triol] as the compound, how does the fold induction at 10 µM [3] read?
The fold induction at 10 µM was 1.

And the fold induction at 100 µM [4]?
Its fold induction at 100 µM is 1.4.

Which results are given for COc1ccc2oc(-c3ccc(O[C@@H]4OC[C@H](O)[C@H](O)[C@H]4O)cc3)nc2c1 [Example 92, (2S,3R,4S,5S)-2-(4-(5-methoxybenzo[d]oxazol-2-yl)phenoxy)tetrahydro-2H-pyran-3,4,5-triol]?
fold induction at 10 µM [1]: 3; fold induction at 100 µM [2]: 1.6; HRE expression: more than threefold

COc1ccc2oc(-c3cccc(O[C@@H]4OC[C@H](O)[C@H](O)[C@H]4O)c3)nc2c1 [Example 106, (2S,3R,4S,5S)-2-(3-(5-methoxybenzo[d]oxazol-2-yl)phenoxy)tetrahydro-2H-pyran-3,4,5-triol] was tested. Which fold induction at 10 µM [1] did it give?
Its fold induction at 10 µM is 3.4.

What about the fold induction at 100 µM [2] of the same compound?
The fold induction at 100 µM was 1.7.

What about the HRE expression of the same compound?
The HRE expression was “more than threefold”.

Which fold induction at 10 µM [3] does the source give for CC(C)c1ccc(Oc2cccc(O[C@H]3OC[C@H](O)[C@H](O)[C@H]3O)c2)cc1 [Example 54, (2R,3R,4S,5S)-2-(3-(4-isopropylphenoxy)phenoxy)tetrahydro-2H-pyran-3,4,5-triol] here?
Its fold induction at 10 µM is 1.

And the fold induction at 100 µM [4]?
Its fold induction at 100 µM is 1.5.

Which fold induction at 10 µM [1] does the source give for O=C(c1ccc(O[C@@H]2OC[C@H](O)[C@H](O)[C@H]2O)cc1)c1ccco1 [Example 114, furan-2-yl (4-(((2S,3R,4S,5S)-3,4,5-trihydroxytetrahydro-2H-pyran-2-yl)oxy)phenyl)methanone] here?
Its fold induction at 10 µM is 1.1.

What about the fold induction at 100 µM [2] of the same compound?
The fold induction at 100 µM was 1.3.

Which results are given for N#Cc1ccc(C(=O)c2ccc(O[C@@H]3OC[C@H](O)[C@H](O)[C@H]3O)cc2)cc1 [Example 72, 4-(4-(((2S,3R,4S,5S)-3,4,5-trihydroxytetrahydro-2H-pyran-2-yl)oxy)benzoyl)benzonitrile]?
fold induction at 10 µM [3]: 1; fold induction at 100 µM [4]: 1.3

What does the source list for COc1ccc(Cc2ccc(O[C@H]3OC[C@H](O)[C@H](O)[C@H]3O)c(Cl)c2)cc1 [Example 51, (2R,3R,4S,5S)-2-(2-chloro-4-(4-methoxybenzyl)phenoxy)tetrahydro-2H-pyran-3,4,5-triol]?
fold induction at 10 µM [3]: 1.3; fold induction at 100 µM [4]: 2.9

With COc1ccc(Oc2ccc(O[C@H]3OC[C@H](O)[C@H](O)[C@H]3O)cc2)cc1 [Example 55, (2R,3R,4S,5S)-2-(4-(4-methoxyphenoxy)phenoxy)tetrahydro-2H-pyran-3,4,5-triol] as the compound, how does the fold induction at 10 µM [3] read?
The fold induction at 10 µM was 1.8.

What about the fold induction at 100 µM [4] of the same compound?
Its fold induction at 100 µM is 2.9.

Which fold induction at 10 µM [1] does the source give for COc1ccc2oc(-c3cccc(O[C@H]4OC[C@H](O)[C@H](O)[C@H]4O)c3)nc2c1 [Example 107, (2R,3R,4S,5S)-2-(3-(5-methoxybenzo[d]oxazol-2-yl)phenoxy)tetrahydro-2H-pyran-3,4,5-triol] here?
The fold induction at 10 µM was 3.1.

What about the fold induction at 100 µM [2] of the same compound?
Its fold induction at 100 µM is 4.2.

What about the HRE expression of the same compound?
Its HRE expression is “more than threefold”.

Which fold induction at 10 µM [1] does the source give for COc1ccc(Cc2ccc(O[C@H]3OC[C@H](O)[C@H](O)[C@H]3N=[N+]=[N-])cc2)cc1 [Example 77, (3S,4R,5R,6R)-5-azido-6-(4-(4-methoxybenzyl)phenoxy)tetrahydro-2H-pyran-3,4-diol] here?
Its fold induction at 10 µM is 1.

And the fold induction at 100 µM [2]?
The fold induction at 100 µM was 1.3.

What does the source list for COc1ccc(-c2ccc(O[C@H]3OC[C@H](O)[C@H](O)[C@H]3O)cc2)cn1 [Example 85, (2R,3R,4S,5S)-2-(4-(6-methoxypyridin-3-yl)phenoxy)tetrahydro-2H-pyran-3,4,5-triol]?
fold induction at 10 µM [1]: 1.3; fold induction at 100 µM [2]: 2.6

Which results are given for COc1ccc(C(c2ccc(O[C@H]3OC[C@H](O)[C@H](O)[C@H]3O)cc2)(C(F)(F)F)C(F)(F)F)cc1 [Example 32, (2R,3R,4S,5S)-2-(4-(1,1,1,3,3,3-hexafluoro-2-(4-methoxyphenyl)propan-2-yl)phenoxy)tetrahydro-2H-pyran-3,4,5-triol]?
fold induction at 10 µM [5]: 1.3; fold induction at 100 µM [6]: 1.8

Which results are given for CN(C)c1ccc(Cc2ccc(O[C@@H]3OC[C@H](O)[C@H](O)[C@H]3O)cc2)cc1 [Example 12, (2S,3R,4S,5S)-2-(4-(4-(dimethylamino)benzyl)phenoxy) tetrahydro-2H-pyran 3,4,5-triol]?
fold induction at 10 µM [5]: 1.2; fold induction at 100 µM [6]: 1.6; HRE assay: •

How did the fold induction at 10 µM [1] turn out when COc1ccc2c(ccn2-c2ccc(O[C@H]3OC[C@H](O)[C@H](O)[C@H]3O)cc2)c1 [Example 82, (2R,3R,4S,5S)-2-(4-(5-methoxy-1H-indol-1-yl)phenoxy)tetrahydro-2H-pyran-3,4,5-triol] was run?
Its fold induction at 10 µM is 1.4.

What about the fold induction at 100 µM [2] of the same compound?
The fold induction at 100 µM was 2.3.

For CC(C)c1cccc2nc(-c3cccc(O[C@@H]4OC[C@H](O)[C@H](O)[C@H]4O)c3)oc12 [Example 98, (2S,3R,4S,5S)-2-(3-(7-isopropylbenzo[d]oxazol-2-yl)phenoxy)tetrahydro-2H-pyran-3,4,5-triol], which fold induction at 10 µM [1] is on record?
The fold induction at 10 µM was 1.1.

And the fold induction at 100 µM [2]?
The fold induction at 100 µM was 1.4.

For COc1ccc(-c2ccc(O[C@H]3OC[C@H](O)[C@H](O)[C@H]3O)cc2)cc1 [Example 84, (2R,3R,4S,5S)-2-((4'-methoxy-[1,1'-biphenyl]-4-yl)oxy)tetrahydro-2H-pyran-3,4,5-triol], which fold induction at 10 µM [1] is on record?
Its fold induction at 10 µM is 2.5.

And the fold induction at 100 µM [2]?
Its fold induction at 100 µM is 3.5.

What does the source list for CC(C)c1cccc2nc(-c3cccc(O[C@H]4OC[C@H](O)[C@H](O)[C@H]4O)c3)oc12 [Example 97, (2R,3R,4S,5S)-2-(3-(7-isopropylbenzo[d]oxazol-2-yl)phenoxy)tetrahydro-2H-pyran-3,4,5-triol]?
fold induction at 10 µM [1]: 1.1; fold induction at 100 µM [2]: 1.2

For CC(C)c1ccc(Oc2ccc(O[C@H]3O[C@H](CO)[C@H](O)[C@H](O)[C@H]3O)cc2)cc1 [Example 59, (2R,3R,4S,5R,6R)-2-(hydroxymethyl)-6-(4-(4-isopropylphenoxy)phenoxy)tetrahydro-2H-pyran-3,4,5-triol], which fold induction at 10 µM [3] is on record?
The fold induction at 10 µM was 1.8.

And the fold induction at 100 µM [4]?
The fold induction at 100 µM was 2.8.

How did the fold induction at 10 µM [5] turn out when CSc1ccc(Cc2ccc(O[C@H]3OC[C@H](O)[C@H](O)[C@H]3O)cc2)cc1 [Example 11, (2R,3R,4S,5S)-2-(4-(4-(methylthio)benzyl)phenoxy)tetrahydro-2H-pyran-3,4,5-triol] was run?
The fold induction at 10 µM was 2.4.

What about the fold induction at 100 µM [6] of the same compound?
Its fold induction at 100 µM is 2.4.

And the HRE assay?
The HRE assay was “•••”.

For COc1ccc2oc(-c3ccc(O[C@H]4OC[C@H](O)[C@H](O)[C@H]4O)c(Cl)c3)nc2c1 [Example 103, (2R,3R,4S,5S)-2-(2-chloro-4-(5-methoxybenzo[d]oxazol-2-yl)phenoxy)tetrahydro-2H-pyran-3,4,5-triol], which fold induction at 10 µM [1] is on record?
The fold induction at 10 µM was 2.6.

And the fold induction at 100 µM [2]?
The fold induction at 100 µM was 2.9.

With O[C@@H]1[C@@H](O)[C@@H](Oc2ccc(Cc3ccc(OC(F)(F)F)cc3)cc2)OC[C@@H]1O [Example 10] as the compound, how does the “HRE-increasing 10uM” value (10uM, fold increase of HRE expression, hypoxic conditions (O2 0.1%) 18 hours, Table 2) read?
The value was 1.

And the “HRE-increasing 100uM” value (100uM, fold increase of HRE expression, hypoxic conditions (O2 0.1%) 18 hours, Table 2)?
Its value is under 1.

What about the HRE assay of the same compound?
Its HRE assay is “•”.
